The results in this text go back to US5112382A, “Halopropargyl compounds, compositions, uses and processes of preparation” (Rohm and Haas Company, priority 1990, dated 1992).

≈ marks a conversion by molar mass, not a printed value. Where two headings read alike, the source gives them in different places.

In experiment [1] the test system is Puccinia recondita (f. sp. tritici Races PKB and PLD). As to the kind of experiment: whole plant or invertebrate. Type of experiment: in vivo. Particulars: 240 h.
Experiment [2] relates to Piricularia oryzae. In words: whole plant or invertebrate. In kind it is in vivo. As to conditions: Pyricularia oryzae, 192 h, read-out: % Control.
Experiment [3] relates to Septoria nodorum. In words: In-vitro plant fungicide test, SEP. Type of experiment: cell-based. Particulars: Parastagonospora nodorum, rate 50 PPM, read-out: % Control.
Experiment [4] concerns Xanthomonas campestris. In words: In-vitro plant fungicide test, XAN. In kind it is cell-based. Particulars: read-out: % Control.
Experiment [5] deals with Septoria glume blotch of wheat. As to the kind of experiment: whole plant or invertebrate. In kind it is in vivo. As to conditions: Triticum aestivum.
The test system of experiment [6] is Erysiphe graminis (f. sp. tritici). In words: whole plant or invertebrate. Type of experiment: in vivo. Particulars: Blumeria graminis.
Experiment [7] relates to Staphylococcus aureus. As to the kind of experiment: MIC, broth two-fold serial dilution test, Saur. Particulars: read-out: Minimum Inhibitory Concentration (MIC). In kind it is cell-based. As for the experimental part: (§1) A minimum inhibitory concentration (MIC) value is obtained using a broth, two-fold serial dilution test performed as follows: […] A volume of the stock solution is dispensed into culture media to give an initial starting test concentration of 500 ppm compound. The test is carried out by adding and equal volume of broth to each vessel in the dilution series, except for the first vessel. The first vessel contains twice the volume of broth plus the initial concentration of test compound. One half of the broth from the first vessel is transferred to the second vessel. After being mixed, one half the resulting volume is removed from the second vessel and transferred to the third vessel. The entire cycle is repeated sufficiently to give a series of concentrations amounting to 500, 250, 125, 63, 31, 16, 8, and 4 ppm (or 100, 50, 25, 12.5, 6.2, 3.1, 1.6, and 0.8), respectively. Each vessel is then inoculated with a cell suspension of the appropriate test organism. Bacteria are grown in both and fungi on agar slats for a time and at a temperature appropriate to the species being tested. At the end of the growth period, the broth is vortexed to disperse the cells. In the case of fungi, the pores are harvested by pipetting water onto the slant and dislodging the spores with a sterile loop. The cell/spore suspension is standardized by controlling incubation time, temperature, and the volume of the diluent. The suspension is then used to inoculate the vessels containing the broth compound. The vessels are then incubated at the appropriate temperature. After the incubation, the vessels are examined for growth/no growth. The minimum inhibitory concentration (MIC) is defined as the lowest concentration of compound that results in complete inhibition of growth of the test organism.

Experiment [8] relates to Aureobasidium pullulans. As to the kind of experiment: MIC, broth two-fold serial dilution test, Apul. Type of experiment: cell-based. As to conditions: read-out: Minimum Inhibitory Concentration (MIC). Here is the method:
as §1

Experiment [9] concerns Phytophthora infestans. In words: whole plant or invertebrate. In kind it is in vivo. As to conditions: in Solanum lycopersicum, 96 h, read-out: % Control.
Experiment [10] relates to Pythium ultimum. In words: In-vitro plant fungicide test, PYU. In kind it is cell-based. As to conditions: Globisporangium ultimum, read-out: % Control; for inhibition of growth at 50 ppm: rate 50 PPM.
In experiment [11] the test system is Piricularia oryzae. As to the kind of experiment: microbe, parasite or virus in culture. Type of experiment: cell-based. Particulars: read-out: % Control.
The test system of experiment [12] is Botrytis cinerea. In words: In-vitro plant fungicide test, BOC. Particulars: read-out: % Control.
Experiment [13] relates to Pseudomonas aerugenosa. In words: MIC, broth two-fold serial dilution test, Psae. Particulars: read-out: Minimum Inhibitory Concentration (MIC). In kind it is cell-based. As for the experimental part: as §1
Experiment [14] concerns Aspergillus niger. In words: MIC, broth two-fold serial dilution test, Anig. Type of experiment: cell-based. As to conditions: read-out: Minimum Inhibitory Concentration (MIC). As for the experimental part: as §1
Experiment [15] relates to Pseudomonas fluorescens. As to the kind of experiment: MIC, broth two-fold serial dilution test, Psfl. In kind it is cell-based. As to conditions: read-out: Minimum Inhibitory Concentration (MIC). Here is the method: as §1
Experiment [16] has as its system Rhizoctonia solani. As to the kind of experiment: In-vitro plant fungicide test, RHI. Type of experiment: cell-based. As to conditions: read-out: % Control; for inhibition of growth at 50 ppm: rate 50 PPM.
Experiment [17] relates to Fusarium roseum. In words: microbe, parasite or virus in culture. As to conditions: Fusarium sambucinum, read-out: % Control.
The subject of experiment [18] is Cochliobolus sativus. In words: In-vitro plant fungicide test, HEL. Type of experiment: cell-based. As to conditions: Bipolaris sorokiniana, read-out: % Control; for inhibition of growth at 50 ppm: rate 50 PPM.
Experiment [19] has as its system Pseudoperonospora cubensis. As to the kind of experiment: whole plant or invertebrate. Type of experiment: in vivo. Particulars: in Cucumis sativus, 168 h.
The subject of experiment [20] is Escherichia coli. As to the kind of experiment: MIC, broth two-fold serial dilution test, Ecol. Type of experiment: cell-based. Particulars: read-out: Minimum Inhibitory Concentration (MIC). As for the experimental part: as §1
Experiment [21] relates to Phytophthora capsici. As to the kind of experiment: In-vitro plant fungicide test, PHY. Type of experiment: cell-based. As to conditions: read-out: % Control.

On to `COC(=O)N(CC#CI)N=Cc1ccc([N+](=O)[O-])o1` [Compound 8, N'-Methoxycarbonyl-N'-3-iodopropargyl 5-nitro-2-furancarboxaldehyde hydrazone], for which the pest or weed control at 200 ppm was determined as 0% in experiment [1]; 90% in experiment [2]; 0% in experiment [5]; 0% in experiment [6]; 0% in [9]; 0% in experiment [19]. The inhibition of growth at 50 ppm in [3] turned out to be 100%; in experiment [4] it was 0%; in experiment [10], 100%; in [11], 100%; in experiment [12], 0%; in experiment [16] it was 100%. Moreover, the inhibition of growth at 50 ppm in experiment [17] and in [18] was 100% throughout. Besides, the MIC in [7] is below 4 µg/mL; in [8], below 4 µg/mL; in experiment [13] it was 125 µg/mL (≈ 331 µM); in experiment [14] it was below 4 µg/mL; in [15], 250 µg/mL (≈ 663 µM); in experiment [20], 63 µg/mL (≈ 167 µM).
With `COC(=O)N(CC#CI)N=Cc1ccc(C#N)cc1` [Compound 9, N'-Methoxycarbonyl-N'-3-iodopropargyl 4-cyanobenzaldehyde hydrazone], the pest or weed control at 200 ppm amounted to 0% in [1]; 0% in experiment [2]; 0% in experiment [5]; 0% in experiment [6]; 0% in [9]; 85% in experiment [19]. In addition, the inhibition of growth at 50 ppm in experiment [3] was 100%; in experiment [21] (rate 50 PPM), 95%; in [4] (XAN, rate 50 PPM), 0%; in experiment [10], 100%; in experiment [11], 100%; in [12], 50%. Further, the inhibition of growth at 50 ppm in [16], in experiment [17] and in [18] was 100% throughout. Moreover, the MIC is above 500 µg/mL in experiment [7]; above 500 µg/mL in experiment [13]; above 250 µg/mL in [14]; above 500 µg/mL in experiment [15]; above 500 µg/mL in [20].
For the compound `COC(=O)N(CC#CI)N=Cc1ccc(Cl)cc1` [Compound 5, N'-Methoxycarbonyl-N'-3-iodopropargyl 4-chlorobenzaldehyde hydrazone], the pest or weed control at 200 ppm came to 80% in experiment [1]; 95% in experiment [2]; 0% in experiment [5]; 0% in experiment [6]; 90% in [9]; 99% in [19]. The inhibition of growth at 25 ppm turned out to be 50% in experiment [21] (rate 25 PPM); 0% in [4] (XAN, rate 25 PPM); 50% in [10] (rate 25 PPM); 100% in experiment [11]; 0% in experiment [12]; 75% in experiment [16] (rate 25 PPM). The inhibition of growth at 25 ppm in experiment [17] was found to be 95%; in [18] (rate 25 PPM) it was 100%. For the same compound, the MIC in experiment [7] was 8 µg/mL (≈ 21.2 µM); in experiment [8] it was below 4 µg/mL; in experiment [13], 16 µg/mL (≈ 42.5 µM); in [14] it was below 4 µg/mL; in experiment [15], 125 µg/mL (≈ 332 µM); in experiment [20], 125 µg/mL (≈ 332 µM).
